Reference: patent publication US9809624B2, “Neurotensin analogues for radioisotope targeting to neurotensin receptor-positive tumors” (INSERM (Institut National de la Sante et de la Recherche …, priority 2009, dated 2017)
Non-standard residues stand in square brackets, D forms with d. Residues, ends and D or L forms follow the SMILES beside them. Tle = CC(C)(C)[C@H](N)C(=O)O

Key:
NTS1 [1] = target: T1, NTS1 (Homo sapiens, UniProt P30989); assay: Binding to HT29 cell membranes (competition with 125I-Tyr3-neurotensin); settings: 50 pM 125I-Tyr3-neurotensin, 45 min room temperature
T1 construct: endogenous in cells; host or cells: HT29 cells (membranes or living cells)
Procedure: Membrane bound activity was recovered by filtration onto Whatman GF/B filters presoaked for 1 hour with polyethyleneimine (0.2% in water) and rinsed twice with buffer. Non-specific binding was evaluated in the presence of 10^-6 M neurotensin. Radioactivity was counted and results were analyzed with GraphPad Prism® (GraphPad Software, Inc. San Diego, Calif.). All experiments were performed three times in triplicate. Ki values for binding to HT29 cell membranes and IC50 for binding to cells were used to evaluate affinity (Table 2).

NTS1 [2] = target: T1, NTS1; assay: Binding to living HT29 cells (competition); settings: 60 min 37° C., tracer [Lys6(DTPA(111In))]-NT, the labeled DTPA(111In)-peptide itself, or 125I-NT (DOTA-peptides)
Procedure: After washing the wells twice with ice-cold DMEM 0.2% BSA, cells were lysed in 500 μL 0.1N NaOH and radioactivity was counted. Non-specific binding was evaluated in the presence of 10^-6 M neurotensin. Competition curves were analyzed with the “Equilibrium Expert” software (Raguin et al., Anal. Biochem. (2002) 310, 1-14). All experiments were performed three times in triplicate. Ki values for binding to HT29 cell membranes and IC50 for binding to cells were used to evaluate affinity (Table 2).

T1 sequence (P30989 whole entry): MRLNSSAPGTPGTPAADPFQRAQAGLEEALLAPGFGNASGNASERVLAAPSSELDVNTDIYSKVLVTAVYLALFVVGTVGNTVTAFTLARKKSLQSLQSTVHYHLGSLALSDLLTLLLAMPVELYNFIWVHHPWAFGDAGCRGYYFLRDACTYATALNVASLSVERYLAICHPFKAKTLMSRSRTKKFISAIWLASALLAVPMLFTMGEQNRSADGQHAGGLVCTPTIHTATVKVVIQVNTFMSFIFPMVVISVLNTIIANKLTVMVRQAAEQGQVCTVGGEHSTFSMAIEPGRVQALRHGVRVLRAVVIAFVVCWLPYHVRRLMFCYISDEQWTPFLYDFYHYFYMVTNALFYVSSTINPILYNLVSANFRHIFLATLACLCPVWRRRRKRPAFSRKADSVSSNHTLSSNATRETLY

| Compound | Ki (NTS1 [1]) [nM] | IC50 (NTS1 [2]) [nM] |
| --- | --- | --- |
| CC[C@H](C)[C@H](NC(=O)[C@H](Cc1ccc(O)cc1)NC(=O)[C@@H]1CCCN1C(=O)[C@H](CCCNC(=N)N)NC(=O)[C@H](CCCNC(=N)N)NC(=O)[C@@H]1CCCN1C(=O)[C@H](CCCCN)NC(C)=O)C(=O)N[C@@H](CC(C)C)C(=O)O [NT-20.1] | 0.072 ± 0.019 | 0.82 ± 0.08 |
| CC(=O)N[C@@H](CCCCN)C(=O)N1CCC[C@H]1C(=O)N[C@@H](CCCNC(=N)N)C(=O)N[C@@H](CCCNC(=N)N)C(=O)N1CCC[C@H]1C(=O)N[C@@H](Cc1ccc(O)cc1)C(=O)N[C@H](C(=O)N[C@@H](CC(C)C)C(=O)O)C(C)(C)C [NT-20.2, Ac-Lys-Pro-Arg-Arg-Pro-Tyr-Tle-Leu-OH] (Ac-KPRRPY[Tle]L-OH) | 0.26 ± 0.07 | 2.46 ± 0.79 |
